Assays:
[1] = system: sarcoma; test: Clinical outcome of sarcoma patients treated with ET-743 (Example 1, 160 patients; by XPG mRNA, XPG protein, BRCA1 mRNA); type: in vivo, human; parameters: Tumor Control Rate (CR+PR+MR+SD 6 mo) / patients achieving progression free survival 6 months (PFS6) / survival at 12 months: concentration or dose not given beside the values
Experimental: In this study, 160 paraffin embedded tumor samples from sarcoma patients before the treatment with any chemotherapy agent have been evaluated.
(§1) The majority of patients were treated before with one or several chemotherapy agents and later they followed a treatment with ET-743. The dosage of intravenous infusion (IV) of ET-743 given to the different patients was within the range of 1.650-1.0 mg/m^2; the schedules were 24 hours or 3 hour IV infusion with a three week interval between cycles; and the number of cycles ranged from 1 up to 44 cycles in some patients.
The clinical data from the patients was collected in the clinical data collection form and matched with the molecular data after completion of the mRNA and protein expression levels determination (Table 1).
SAS v8.2 (statistical software) was used for all the statistical analysis. The statistical techniques for univariate, bivariate and multivariate variables were chosen, according with the nature of variables that will be analysed, i.e. when the dependent variable is a temporal variable with censor status the Cox regression would be applied, when correlation between variables will be computed the Pearson and/or Spearman measures would be used. P-values below 0.05 will be considered statistically significant in all tests, when appropriate 95% confidence intervals will be presented too.
A total of 160 paraffin embedded tumor samples providing evaluable results for mRNA or protein expression were analysed. […] These samples came from sarcoma patients before being treated with a chemotherapy agent.

[2] = system: sarcoma; test: Clinical outcome of sarcoma patients treated with ET-743 (Example 2, 168 patients; by XPG SNP Asp1104His genotype, XPG mRNA, XPG protein); type: in vivo, human; parameters: surviving patients at two years after treatment / Tumor Control Rate (CR+PR+MR+SD≧6 mo) / patients achieving progression free survival ≧6 months (PFS6) / survival at 12 months / rate of survival after 2 years: concentration or dose not given beside the values
Experimental: In this study, 168 paraffin embedded tumor samples from sarcoma patients before the treatment with any chemotherapy agent have been evaluated.
as §1
The clinical data from the patients was collected in the clinical data collection form and matched with the molecular data (Table 5)
A total of 168 paraffin embedded tumor samples providing evaluable results for at least one of the biomarkers (XPGmRNA, XPG protein, XPGAsp1104His or BRCA 1 mRNA) were analysed.

[3] = high vs low XPG mRNA subpopulation
[4] = high vs low XPG protein subpopulation
[5] = intermediate subpopulation (high BRCA1 and high XPG, or low BRCA1 and low XPG)
[6] = whole cohort, 51 patients still censored
[7] = whole cohort, Kaplan-Meier (FIG. 8)

Compound: COc1cc2c(cc1O)CCN[C@]21CS[C@@H]2c3c(OC(C)=O)c(C)c4c(c3[C@H](COC1=O)N1[C@@H]2[C@H]2c3c(cc(C)c(OC)c3O)C[C@@H]([C@@H]1O)N2C)OCO4 [ET-743, ecteinascidin 743]
- Minor Responses (MR) ([1]; 140 evaluable patients): 7.1%
- Tumor Control Rate (CR+PR+MR+SD 6 mo) ([1]; 140 evaluable patients): 47.1%
- overall response rate (RR), Complete+Partial Responses ([1]; 140 evaluable patients): 16.4%
- patients achieving progression free survival 6 months (PFS6) ([1]; 140 evaluable patients): 41.4%
- CR + PR + MR + SD > 6 ([1]; High BRCA1, High XPG): 11/26 (42%)
- Median PFS ([1]; High BRCA1, High XPG): 2.5 m
- Median Survival ([1]; High BRCA1, High XPG): 13.6 m
- PFS 6 ([1]; High BRCA1, High XPG): 38.5%
- PFS > 6 Months rate ([1]; High BRCA1, High XPG): 9/26 (35%)
- CR + PR + MR + SD > 6 ([1]; High BRCA1, Low XPG): 4/20 (20%)
- Median PFS ([1]; High BRCA1, Low XPG): 2.5 m
- Median Survival ([1]; High BRCA1, Low XPG): 6.6 m
- PFS 6 ([1]; High BRCA1, Low XPG): 22.2%
- PFS > 6 Months rate ([1]; High BRCA1, Low XPG): 4/21 (19%)
- CR + PR ([1]; High BRCA1 mRNA, High XPG mRNA): 5/26 (19%)
- CR + PR ([1]; High BRCA1 mRNA, Low XPG mRNA): 0/20 (0%)
- CR + PR + MR + SD > 6 ([1]; Low BRCA1, High XPG): 12/19 (63%)
- Median PFS ([1]; Low BRCA1, High XPG): 7.3 m
- Median Survival ([1]; Low BRCA1, High XPG): 15.4 m
- PFS 6 ([1]; Low BRCA1, High XPG): 55.7%
- PFS > 6 Months rate ([1]; Low BRCA1, High XPG): 10/21 (48%)
- CR + PR + MR + SD > 6 ([1]; Low BRCA1, Low XPG): 14/31 (45%)
- Median PFS ([1]; Low BRCA1, Low XPG): 3.4 m
- Median Survival ([1]; Low BRCA1, Low XPG): 11.7 m
- PFS 6 ([1]; Low BRCA1, Low XPG): 35.5%
- PFS > 6 Months rate ([1]; Low BRCA1, Low XPG): 12/27 (61%)
- CR + PR ([1]; Low BRCA1 mRNA, High XPG mRNA): 3/19 (16%)
- CR + PR ([1]; Low BRCA1 mRNA, Low XPG mRNA): 6/31 (19%)
- CR + PR ([1]; XPG mRNA < 1.55): 6/59 (10%)
- CR + PR + MR + SD ≧ 6 ([1]; XPG mRNA < 1.55): 21/59 (36%)
- Median PFS (KM) ([1]; XPG mRNA < 1.55): 2.5 m
- Median Survival (KM) ([1]; XPG mRNA < 1.55): 9.3 m
- PFS6 (KM) ([1]; XPG mRNA < 1.55): 29.5%
- PFS ≧ 6 Months rate ([1]; XPG mRNA < 1.55): 18/60 (30%)
- CR + PR ([1]; XPG mRNA ≧ 1.55): 11/57 (19%)
- CR + PR + MR + SD ≧ 6 ([1]; XPG mRNA ≧ 1.55): 32/57 (56%)
- Median PFS (KM) ([1]; XPG mRNA ≧ 1.55): 7.1 m
- Median Survival (KM) ([1]; XPG mRNA ≧ 1.55): 19.1 m
- PFS6 (KM) ([1]; XPG mRNA ≧ 1.55): 52.1%
- PFS ≧ 6 Months rate ([1]; XPG mRNA ≧ 1.55): 28/59 (47.5%)
- CR + PR + MR + SD ≧ 6 ([1]; XPG protein 0 + 1): 27/64 (42%)
- Median PFS (KM) ([1]; XPG protein 0 + 1): 3.7 m
- Median Survival (KM) ([1]; XPG protein 0 + 1): 11.7 m
- PFS6 (KM) ([1]; XPG protein 0 + 1): 39.9%
- PFS ≧ 6 Months ([1]; XPG protein 0 + 1): 26/64 (39%)
- CR + PR + MR + SD ≧ 6 ([1]; XPG protein 2 + 3): 15/25 (60%)
- Median PFS (KM) ([1]; XPG protein 2 + 3): 7.1 m
- Median Survival (KM) ([1]; XPG protein 2 + 3): 27.7 m
- PFS6 (KM) ([1]; XPG protein 2 + 3): 55.6%
- PFS ≧ 6 Months ([1]; XPG protein 2 + 3): 13/25 (50%)
- CR + PR ([1]; XPG protein IHC score 0 + 1): 8/64 (13%)
- CR + PR ([1]; XPG protein IHC score 2 + 3): 6/25 (24%)
- survival at 12 months ([1]; high XPG expression (protein analysis, FIG. 5)): 73.7%
- survival at 12 months ([1]; high XPG mRNA expression): 61.9%
- fold increase in objective response [1, 3]: 1.9 fold
- fold increase in tumor control rate [1, 3]: 1.6 fold
- fold increase in objective response [1, 4]: 1.85 fold
- fold increase in tumor control rate [1, 4]: 1.43 fold
- Median OS [1, 5]: 13.6 months
- Median PFS [1, 5]: 2.8 months
- PFS6 rate [1, 5]: 36.6%
- survival at 12 months ([1]; low XPG mRNA expression): 46.2%
- survival at 12 months ([1]; low XPG protein expression): 45.5%
- median duration of the response (CR+PR+MR) ([1]; whole cohort): 7.83 months
- Median Survival [1, 6]: 10 months
- Median Survival ([1]; whole cohort, Kaplan-Meier): 17.7 months
- PFS6 rate ([1]; whole cohort, Kaplan-Meier): 42.1%
- median progression free survival ([1]; whole cohort, Kaplan-Meier): 3.8 months
- Minor Responses (MR) ([2]; 147 evaluable patients): 6.8%
- Tumor Control Rate (CR+PR+MR+SD≧6 mo) ([2]; 147 evaluable patients): 44.9%
- overall response rate (RR), Complete+Partial Responses ([2]; 147 evaluable patients): 15.6%
- patients achieving progression free survival ≧6 months (PFS6) ([2]; 147 evaluable patients): 39.5%
- Median PFS ([2]; Asp/Asp XPG (W), XPG mRNA < 1.55): 1.8 months
- Median PFS ([2]; Asp/Asp XPG (W), XPG protein 0 + 1): 2.9 months
- Median PFS ([2]; Asp/His + His/His XPG (H + M), XPG mRNA < 1.55): 3.3 months
- Median PFS ([2]; Asp/His + His/His XPG (H + M), XPG protein 0 + 1): 3.3 months
- Median OS ([2]; H + M, XPG mRNA < 1.55): 9.0 months
- OS at 12 months ([2]; H + M, XPG mRNA < 1.55): 39.1%
- PFS at 6 months ([2]; H + M, XPG mRNA < 1.55): 31.3%
- Median OS ([2]; H + M, XPG mRNA >= 1.55): 5.0 months
- Median PFS ([2]; H + M, XPG mRNA >= 1.55): 2.9 months
- OS at 12 months ([2]; H + M, XPG mRNA >= 1.55): 36.9%
- PFS at 6 months ([2]; H + M, XPG mRNA >= 1.55): 15.4%
- Median OS ([2]; H + M, XPG protein 0 + 1): 6.2 months
- OS at 12 months ([2]; H + M, XPG protein 0 + 1): 23.7%
- OS at 24 months ([2]; H + M, XPG protein 0 + 1): 0%
- PFS at 6 months ([2]; H + M, XPG protein 0 + 1): 26.3%
- Median OS ([2]; H + M, XPG protein 2 + 3): 12.2 months
- Median PFS ([2]; H + M, XPG protein 2 + 3): 3.4 months
- OS at 12 months ([2]; H + M, XPG protein 2 + 3): 52.6%
- OS at 24 months ([2]; H + M, XPG protein 2 + 3): 0%
- PFS at 6 months ([2]; H + M, XPG protein 2 + 3): 27.3%
- rate of survival after 2 years ([2]; M+H genotype and high XPG mRNA expression): 0%
- rate of survival after 2 years ([2]; M+H genotype and low XPG mRNA expression): 39.1%
- rate of survival after 2 years ([2]; W genotype and high XPG mRNA expression): 66.9%
- rate of survival after 2 years ([2]; W genotype and low XPG mRNA expression): 28.9%
- Median OS ([2]; W, XPG mRNA < 1.55): 8.6 months
- OS at 12 months ([2]; W, XPG mRNA < 1.55): 28.9%
- PFS at 6 months ([2]; W, XPG mRNA < 1.55): 26.3%
- Median OS ([2]; W, XPG mRNA >= 1.55): 27.7 months
- Median PFS ([2]; W, XPG mRNA >= 1.55): 17.1 months
- OS at 12 months ([2]; W, XPG mRNA >= 1.55): 83.7%
- PFS at 6 months ([2]; W, XPG mRNA >= 1.55): 82.4%
- Median OS ([2]; W, XPG protein 0 + 1): 11.7 months
- OS at 12 months ([2]; W, XPG protein 0 + 1): 47.1%
- OS at 24 months ([2]; W, XPG protein 0 + 1): 40.4%
- PFS at 6 months ([2]; W, XPG protein 0 + 1): 44.0%
- Median OS ([2]; W, XPG protein 2 + 3): 27.7 months
- Median PFS ([2]; W, XPG protein 2 + 3): 8.0 months
- OS at 12 months ([2]; W, XPG protein 2 + 3): 90.0%
- OS at 24 months ([2]; W, XPG protein 2 + 3): 90.0%
- PFS at 6 months ([2]; W, XPG protein 2 + 3): 77.1%
- Median PFS (KM) ([2]; genotype H): 3.4 months
- Median Survival (KM) ([2]; genotype H): 6.9 months
- PFS6 (KM) ([2]; genotype H): 34.6%
- survival at 12 months ([2]; genotype H): 34.6%
- CR + PR + MR + SD ≧ 6 ([2]; genotype M): 0
- Median PFS (KM) ([2]; genotype M): 1.6 months
- Median Survival (KM) ([2]; genotype M): 9.1 months
- PFS6 (KM) ([2]; genotype M): 0%
- survival at 12 months ([2]; genotype M): 31.3%
- Median PFS (KM) ([2]; genotype W): 6.4 months
- Median Survival (KM) ([2]; genotype W): 19.9 months
- PFS6 (KM) ([2]; genotype W): 50.8%
- survival at 12 months ([2]; genotype W): 54%
- median duration of the response (CR+PR+MR) ([2]; whole cohort): 7.83 months
- Median Survival [2, 6]: 9.6 months
- surviving patients at two years after treatment ([2]; whole cohort, Kaplan-Meier): 34.0%
- Median Survival [2, 7]: 15.4 months
- PFS6 rate [2, 7]: 40.2%
- median progression free survival [2, 7]: 3.4 months

Source: US20100267732A1, “Prognostic Molecular Markers for ET-743 Treatment” (PHARMA MAR, S.A., priority 2007, published 2010)
